{"source": "patent US12268674B2", "about": "“Mi-2β inhibitor as an immunotherapy agent” (BioVentures, LLC, priority 2021, dated 2025)", "key": {"B16F10 cells": {"test_system": "B16F10 cells", "assay": "Co-culture assay of B16F10 cells with activated Pmel-1 T cells", "type": "cell-based, mouse", "details": "25 μM; IFN-γ pretreated; activated Pmel-1 T cells 1:1, three days", "protocol": "Pmel-1 TCR transgenic mice were purchased from Jackson Laboratory (stock #005023). The CD8 T cells were isolated from spleen and lymph nodes from Pmel-1 transgenic mice using the CD8a^+ T Cell Isolation Kit, mouse (Miltenyi Biotec, Order no: 130-104-075) according to the manufacturer's protocol. Freshly isolated CD8 T cells were stimulated with anti-CD3/CD28 beads (Thermo Fisher Scientific #11452D) for 3 days, and then the recombinant mouse IL-2 (Biolegend, #575406) was added at 20 ng/ml. After 6 days activation, T cells were used for co-culture with B16F10 cells.\nB16F10 cells with shMi-2β or shScrambles were transfected with GFP expression vector pcDNA3-EGFP (Plasmid #13031), and the stable cell line was selection with 800 μg/mL G418. For in vitro validation, Mi-2β-deficient B16F10 cells (GFP positive) were mixed with control B16F10 cells (GFP negative) at a 1:1 ratio. The cells were treated with 10 ng/ml of IFN-γ for 24 hours, and then co-cultured with activated Pmel-1 T cells. After three days, the depletion of Mi-2β knockdown B16F10 cells was determined by FACS, comparing the percentage of knockdown cells (GFP positive) to control B16F10 cells (GFP negative)."}, "AFG3L2": {"biological_target": "T1, AFG3L2 (Homo sapiens, UniProt Q9Y4W6)", "T1 construct": "to get the native cell lysate; host or cells: A375 cell lysate", "T1 sequence (Q9Y4W6 67-797)": "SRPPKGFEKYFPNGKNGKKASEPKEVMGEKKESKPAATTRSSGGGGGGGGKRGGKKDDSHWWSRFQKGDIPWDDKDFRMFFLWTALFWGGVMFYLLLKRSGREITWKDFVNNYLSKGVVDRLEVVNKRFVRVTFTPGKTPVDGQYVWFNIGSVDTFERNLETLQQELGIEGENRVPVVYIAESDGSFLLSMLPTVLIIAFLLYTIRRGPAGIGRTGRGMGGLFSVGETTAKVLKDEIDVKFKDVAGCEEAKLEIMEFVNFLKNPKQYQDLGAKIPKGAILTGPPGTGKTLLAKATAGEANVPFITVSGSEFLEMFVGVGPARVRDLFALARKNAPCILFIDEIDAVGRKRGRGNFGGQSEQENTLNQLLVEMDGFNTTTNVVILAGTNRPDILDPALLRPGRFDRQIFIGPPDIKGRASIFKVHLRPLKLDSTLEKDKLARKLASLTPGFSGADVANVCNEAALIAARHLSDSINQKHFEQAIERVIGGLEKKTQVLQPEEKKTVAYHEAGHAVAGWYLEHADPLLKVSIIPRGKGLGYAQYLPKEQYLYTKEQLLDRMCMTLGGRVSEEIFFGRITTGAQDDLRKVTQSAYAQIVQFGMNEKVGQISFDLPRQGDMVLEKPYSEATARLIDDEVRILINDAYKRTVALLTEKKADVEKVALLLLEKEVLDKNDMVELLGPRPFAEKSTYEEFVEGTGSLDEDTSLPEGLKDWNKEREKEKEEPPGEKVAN", "assay": "ATPase profile (ATP acyl phosphate probe)", "type": "binding", "details": "AFG3L2, SEQ ID NO: 29, ATP BS"}, "AK3": {"biological_target": "T2, AK3 (Homo sapiens, UniProt Q9UIJ7)", "T2 construct": "to get the native cell lysate; host or cells: A375 cell lysate", "T2 sequence (Q9UIJ7 whole entry)": "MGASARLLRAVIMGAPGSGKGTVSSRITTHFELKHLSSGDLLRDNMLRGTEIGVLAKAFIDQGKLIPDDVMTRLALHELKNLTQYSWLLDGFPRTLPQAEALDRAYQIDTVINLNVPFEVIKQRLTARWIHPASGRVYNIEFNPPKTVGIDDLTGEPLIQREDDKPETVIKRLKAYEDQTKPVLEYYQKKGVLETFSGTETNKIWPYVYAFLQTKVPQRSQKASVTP", "assay": "ATPase profile (ATP acyl phosphate probe)", "type": "binding", "details": "AK3, SEQ ID NO: 34, ATP BS"}, "BAT1": {"biological_target": "T3, BAT1 (Homo sapiens, UniProt Q13838)", "T3 construct": "to get the native cell lysate; host or cells: A375 cell lysate", "assay": "ATPase profile (ATP acyl phosphate probe)", "type": "binding", "details": "BAT1, SEQ ID NO: 49, ATP BS"}, "CCT4": {"biological_target": "T4, CCT4 (Homo sapiens, UniProt P50991)", "T4 construct": "to get the native cell lysate; host or cells: A375 cell lysate", "assay": "ATPase profile (ATP acyl phosphate probe)", "type": "binding", "details": "CCT4, SEQ ID NO: 53, ATP BS"}, "CMPK1": {"biological_target": "T5, CMPK1 (Homo sapiens, UniProt P30085)", "T5 construct": "endogenous in cells; host or cells: A375 cell lysate", "T5 sequence (P30085 whole entry)": "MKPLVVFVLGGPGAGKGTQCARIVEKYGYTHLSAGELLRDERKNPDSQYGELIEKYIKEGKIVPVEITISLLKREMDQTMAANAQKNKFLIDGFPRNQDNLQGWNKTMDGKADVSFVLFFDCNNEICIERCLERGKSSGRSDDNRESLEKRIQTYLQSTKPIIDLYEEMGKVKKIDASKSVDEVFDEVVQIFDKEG", "assay": "ATPase profile (ATP acyl phosphate probe)", "type": "binding", "details": "CMPK1, SEQ ID NO: 60, ATP BS"}, "COASY": {"biological_target": "T6, COASY (Homo sapiens, UniProt Q13057)", "T6 construct": "endogenous in cells; host or cells: A375 cell lysate", "T6 sequence (Q13057 whole entry)": "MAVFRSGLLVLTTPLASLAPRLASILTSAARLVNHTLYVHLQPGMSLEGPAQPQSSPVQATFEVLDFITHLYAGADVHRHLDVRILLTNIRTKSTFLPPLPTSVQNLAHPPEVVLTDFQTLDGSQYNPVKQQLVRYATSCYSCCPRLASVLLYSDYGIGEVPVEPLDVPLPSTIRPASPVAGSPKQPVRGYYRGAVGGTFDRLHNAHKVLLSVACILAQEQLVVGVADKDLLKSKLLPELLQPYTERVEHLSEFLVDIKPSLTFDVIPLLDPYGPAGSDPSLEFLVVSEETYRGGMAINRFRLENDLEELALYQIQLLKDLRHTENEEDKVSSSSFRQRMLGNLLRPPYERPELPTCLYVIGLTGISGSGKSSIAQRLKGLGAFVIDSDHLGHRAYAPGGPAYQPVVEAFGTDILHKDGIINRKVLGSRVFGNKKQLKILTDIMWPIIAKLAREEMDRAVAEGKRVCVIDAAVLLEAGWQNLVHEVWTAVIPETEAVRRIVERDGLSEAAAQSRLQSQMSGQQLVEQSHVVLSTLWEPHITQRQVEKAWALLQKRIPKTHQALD", "assay": "ATPase profile (ATP acyl phosphate probe)", "type": "binding"}, "DDX28": {"biological_target": "T7, DDX28 (Homo sapiens, UniProt Q9NUL7)", "T7 construct": "endogenous in cells; host or cells: A375 cell lysate", "assay": "ATPase profile (ATP acyl phosphate probe)", "type": "binding", "details": "DDX28, SEQ ID NO: 68, ATP BS"}, "DYNC1H1": {"biological_target": "T8, DYNC1H1 (Homo sapiens, UniProt Q14204)", "T8 construct": "endogenous in cells; host or cells: A375 cell lysate", "assay": "ATPase profile (ATP acyl phosphate probe)", "type": "binding"}, "EPRS": {"biological_target": "T9, EPRS (Homo sapiens, UniProt P07814)", "T9 construct": "endogenous in cells; host or cells: A375 cell lysate", "assay": "ATPase profile (ATP acyl phosphate probe)", "type": "binding", "details": "SEQ ID NO: 77, ATP BS"}, "HARS": {"biological_target": "T10, HARS (Homo sapiens, UniProt P12081)", "T10 construct": "endogenous in cells; host or cells: A375 cell lysate", "assay": "ATPase profile (ATP acyl phosphate probe)", "type": "binding", "details": "SEQ ID NO: 89, ATP BS"}, "HNRNPU": {"biological_target": "T11, HNRNPU (Homo sapiens, UniProt Q00839)", "T11 construct": "endogenous in cells; host or cells: A375", "assay": "ATPase profile (ATP acyl phosphate probe)", "type": "binding", "details": "SEQ ID NO: 92, ATP BS"}, "HSPA5": {"biological_target": "T12, HSPA5 (Homo sapiens, UniProt P11021)", "T12 construct": "to get the native cell lysate; endogenous in cells; host or cells: A375", "T12 sequence (P11021 19-654)": "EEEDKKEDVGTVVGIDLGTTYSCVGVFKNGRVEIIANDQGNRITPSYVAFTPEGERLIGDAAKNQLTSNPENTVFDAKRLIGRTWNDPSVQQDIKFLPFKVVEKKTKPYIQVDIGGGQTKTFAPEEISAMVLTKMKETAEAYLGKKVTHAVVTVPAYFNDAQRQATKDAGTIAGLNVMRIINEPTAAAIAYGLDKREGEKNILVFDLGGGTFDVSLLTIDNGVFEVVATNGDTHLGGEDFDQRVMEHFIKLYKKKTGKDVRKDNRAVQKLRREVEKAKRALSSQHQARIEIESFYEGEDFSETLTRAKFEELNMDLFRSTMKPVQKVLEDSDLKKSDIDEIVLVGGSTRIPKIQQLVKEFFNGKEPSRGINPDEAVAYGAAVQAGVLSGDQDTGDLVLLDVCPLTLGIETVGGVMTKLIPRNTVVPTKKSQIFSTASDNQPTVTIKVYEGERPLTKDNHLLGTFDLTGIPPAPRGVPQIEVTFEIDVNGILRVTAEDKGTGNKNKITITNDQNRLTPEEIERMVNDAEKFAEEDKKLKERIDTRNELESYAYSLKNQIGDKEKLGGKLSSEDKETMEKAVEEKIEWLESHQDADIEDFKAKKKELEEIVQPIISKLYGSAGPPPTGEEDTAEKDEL", "assay": "ATPase profile (ATP acyl phosphate probe)", "type": "binding"}, "NDUFA10": {"biological_target": "T13, NDUFA10 (Homo sapiens, UniProt O95299)", "T13 construct": "to get the native cell lysate; endogenous in cells; host or cells: A375", "T13 sequence (O95299 36-355)": "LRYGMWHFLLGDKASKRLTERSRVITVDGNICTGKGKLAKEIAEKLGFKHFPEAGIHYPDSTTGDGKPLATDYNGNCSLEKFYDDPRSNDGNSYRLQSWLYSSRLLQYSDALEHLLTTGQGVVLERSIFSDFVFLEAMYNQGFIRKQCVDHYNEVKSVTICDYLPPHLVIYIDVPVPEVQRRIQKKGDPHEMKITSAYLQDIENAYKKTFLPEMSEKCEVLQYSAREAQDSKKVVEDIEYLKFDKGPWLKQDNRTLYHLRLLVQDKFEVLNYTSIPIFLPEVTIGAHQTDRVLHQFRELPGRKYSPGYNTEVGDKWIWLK", "assay": "ATPase profile (ATP acyl phosphate probe)", "type": "binding", "details": "NDUFA10, SEQ ID NO: 132, ATP BS"}, "NSF": {"biological_target": "T14, NSF (Homo sapiens, UniProt P46459)", "T14 construct": "to get the native cell lysate; endogenous in cells; host or cells: A375", "T14 sequence (P46459 whole entry)": "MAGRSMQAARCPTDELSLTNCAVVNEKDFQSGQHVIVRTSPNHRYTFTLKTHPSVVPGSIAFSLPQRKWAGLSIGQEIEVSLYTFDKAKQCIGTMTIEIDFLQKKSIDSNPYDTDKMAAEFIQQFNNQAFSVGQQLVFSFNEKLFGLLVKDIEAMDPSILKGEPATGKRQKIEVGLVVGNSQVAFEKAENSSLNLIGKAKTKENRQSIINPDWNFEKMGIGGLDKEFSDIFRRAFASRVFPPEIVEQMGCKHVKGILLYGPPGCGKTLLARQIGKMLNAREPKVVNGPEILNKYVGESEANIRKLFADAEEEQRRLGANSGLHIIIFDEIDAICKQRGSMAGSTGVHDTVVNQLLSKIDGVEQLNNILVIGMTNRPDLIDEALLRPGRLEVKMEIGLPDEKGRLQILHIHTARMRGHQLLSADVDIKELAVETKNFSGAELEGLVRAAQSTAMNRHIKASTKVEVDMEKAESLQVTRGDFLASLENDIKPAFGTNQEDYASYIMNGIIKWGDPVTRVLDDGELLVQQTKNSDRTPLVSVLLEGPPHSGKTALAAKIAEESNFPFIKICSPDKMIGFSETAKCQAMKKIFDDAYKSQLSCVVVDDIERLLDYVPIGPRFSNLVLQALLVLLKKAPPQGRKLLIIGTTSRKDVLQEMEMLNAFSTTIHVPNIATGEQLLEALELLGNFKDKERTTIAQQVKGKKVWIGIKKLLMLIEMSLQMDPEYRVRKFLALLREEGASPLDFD", "assay": "ATPase profile (ATP acyl phosphate probe)", "type": "binding"}, "PKM, PKM2": {"biological_target": "T15, PKM, PKM2 (Homo sapiens, UniProt P14618)", "T15 construct": "to get the native cell lysate; endogenous in cells; host or cells: A375 cell lysate", "T15 sequence (P14618 whole entry)": "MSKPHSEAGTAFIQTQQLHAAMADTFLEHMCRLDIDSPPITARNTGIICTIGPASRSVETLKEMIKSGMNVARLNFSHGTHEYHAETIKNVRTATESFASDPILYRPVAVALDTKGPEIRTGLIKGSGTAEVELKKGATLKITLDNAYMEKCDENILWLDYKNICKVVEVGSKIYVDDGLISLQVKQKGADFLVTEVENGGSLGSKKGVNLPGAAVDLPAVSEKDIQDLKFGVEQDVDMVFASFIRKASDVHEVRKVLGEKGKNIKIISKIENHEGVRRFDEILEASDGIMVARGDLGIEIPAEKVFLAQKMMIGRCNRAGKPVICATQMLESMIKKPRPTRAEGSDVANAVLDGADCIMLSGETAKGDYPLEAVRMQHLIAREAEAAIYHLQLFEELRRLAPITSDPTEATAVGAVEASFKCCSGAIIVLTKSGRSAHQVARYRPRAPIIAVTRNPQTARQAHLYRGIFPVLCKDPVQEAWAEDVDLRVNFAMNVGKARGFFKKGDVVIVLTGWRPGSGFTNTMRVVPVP", "assay": "ATPase profile (ATP acyl phosphate probe)", "type": "binding", "details": "PKM2, SEQ ID NO: 161, ATP BS"}, "POLR3A": {"biological_target": "POLR3A (Homo sapiens, UniProt O14802)", "assay": "ATPase profile (ATP acyl phosphate probe)", "type": "binding", "details": "SEQ ID NO: 164, ATP BS"}, "PRKAG1, PRKAG2": {"test_system": "PRKAG1, PRKAG2", "assay": "ATPase profile (ATP acyl phosphate probe)", "type": "binding", "details": "PRKAG1, PRKAG2, SEQ ID NO: 169, ATP BS"}, "PRKAG2": {"biological_target": "PRKAG2 (Homo sapiens, UniProt Q9UGJ0)", "assay": "ATPase profile (ATP acyl phosphate probe)", "type": "binding", "details": "PRKAG2, SEQ ID NO: 170, ATP BS"}, "PRPS1": {"biological_target": "T16, PRPS1 (Homo sapiens, UniProt P60891)", "T16 construct": "endogenous in cells; host or cells: A375 cell lysate", "T16 sequence (P60891 2-318 limits assumed)": "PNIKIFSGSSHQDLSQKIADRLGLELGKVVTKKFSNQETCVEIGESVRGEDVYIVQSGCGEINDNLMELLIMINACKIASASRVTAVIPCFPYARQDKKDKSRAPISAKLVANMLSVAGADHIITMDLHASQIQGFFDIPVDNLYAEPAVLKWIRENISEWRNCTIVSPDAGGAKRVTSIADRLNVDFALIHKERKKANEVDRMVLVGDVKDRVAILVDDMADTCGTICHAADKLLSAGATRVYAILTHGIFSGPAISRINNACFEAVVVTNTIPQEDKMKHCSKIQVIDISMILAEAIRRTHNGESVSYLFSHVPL", "assay": "ATPase profile (ATP acyl phosphate probe)", "type": "binding", "details": "PRPS1, SEQ ID NO: 171, ATP BS"}, "PSMC4": {"biological_target": "PSMC4 (Homo sapiens, UniProt P43686)", "assay": "ATPase profile (ATP acyl phosphate probe)", "type": "binding", "details": "PSMC4, SEQ ID NO: 176, ATP BS"}, "RFC1": {"biological_target": "T17, RFC1 (Homo sapiens, UniProt P35251)", "T17 construct": "to get the native cell lysate; endogenous in cells; host or cells: A375 cell lysate", "assay": "ATPase profile (ATP acyl phosphate probe)", "type": "binding", "details": "RFC1, SEQ ID NO: 183, ATP BS"}, "RUVBL2": {"biological_target": "T18, RUVBL2 (Homo sapiens, UniProt Q9Y230)", "T18 construct": "to get the native cell lysate; endogenous in cells; host or cells: A375 cell lysate", "assay": "ATPase profile (ATP acyl phosphate probe)", "type": "binding", "details": "RUVBL2, SEQ ID NO: 189, ATP BS"}, "TOR4A": {"biological_target": "T19, TOR4A (Homo sapiens, UniProt Q9NXH8)", "T19 construct": "to get the native cell lysate; endogenous in cells; host or cells: A375 cell lysate", "assay": "ATPase profile (ATP acyl phosphate probe)", "type": "binding", "details": "SEQ ID NO: 207, ATP BS"}, "TTL": {"biological_target": "T20, TTL (Homo sapiens, UniProt Q8NG68)", "T20 construct": "to get the native cell lysate; endogenous in cells; host or cells: A375 cell lysate", "T20 sequence (Q8NG68 whole entry)": "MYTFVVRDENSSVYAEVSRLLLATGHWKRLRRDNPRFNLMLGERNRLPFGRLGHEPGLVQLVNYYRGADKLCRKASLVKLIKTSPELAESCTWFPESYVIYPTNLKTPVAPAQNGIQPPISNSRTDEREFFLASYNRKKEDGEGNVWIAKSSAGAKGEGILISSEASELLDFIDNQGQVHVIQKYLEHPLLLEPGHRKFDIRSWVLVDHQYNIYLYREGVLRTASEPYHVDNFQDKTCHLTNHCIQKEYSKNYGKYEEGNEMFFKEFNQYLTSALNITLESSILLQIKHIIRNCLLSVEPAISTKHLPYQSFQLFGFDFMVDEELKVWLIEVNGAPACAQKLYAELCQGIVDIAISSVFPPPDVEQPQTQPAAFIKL", "assay": "ATPase profile (ATP acyl phosphate probe)", "type": "binding"}}, "data": [{"compound": "Cn1c(=O)[nH]c2ccc(-c3cccc(C(=O)NC4CCn5ccnc5C4)c3)cc21", "note": "(stereo not drawn) [Z36-MP5, 3-(3-methyl-2-oxo-2,3-dihydro-1H-benzo[d]imidazol-5-yl)-N-(5,6,7,8-tetrahydroimidazo[1,2-a]pyridin-7-yl)benzamide]", "values": [{"measurement": "T cell-mediated killing of B16F10 cells", "setting": "B16F10 cells", "result": "significantly induced"}, {"measurement": "Inhibition (%) by 1 μM Z36-MP5", "setting": "AFG3L2", "result": "−4.85", "unit": "%"}, {"measurement": "Inhibition (%) by 1 μM Z36-MP5", "setting": "AK3", "result": 19.58, "unit": "%"}, {"measurement": "Inhibition (%) by 1 μM Z36-MP5", "setting": "BAT1", "result": "−9.58", "unit": "%"}, {"measurement": "Inhibition (%) by 1 μM Z36-MP5", "setting": "CCT4", "result": 11.95, "unit": "%"}, {"measurement": "Inhibition (%) by 1 μM Z36-MP5", "setting": "CMPK1", "result": 2.41, "unit": "%"}, {"measurement": "Inhibition (%) by 1 μM Z36-MP5", "setting": "COASY; SEQ ID NO: 62, ATP BS", "result": "−3.39", "unit": "%"}, {"measurement": "Inhibition (%) by 1 μM Z36-MP5", "setting": "COASY; SEQ ID NO: 63, ATP BS", "result": 23.55, "unit": "%"}, {"measurement": "Inhibition (%) by 1 μM Z36-MP5", "setting": "DDX28", "result": "−5.30", "unit": "%"}, {"measurement": "Inhibition (%) by 1 μM Z36-MP5", "setting": "DYNC1H1; DYNC1H1, SEQ ID NO: 74, ATP BS", "result": "−1.99", "unit": "%"}, {"measurement": "Inhibition (%) by 1 μM Z36-MP5", "setting": "DYNC1H1; DYNC1H1, SEQ ID NO: 75, ATP BS", "result": 0.38, "unit": "%"}, {"measurement": "Inhibition (%) by 1 μM Z36-MP5", "setting": "EPRS", "result": 0.78, "unit": "%"}, {"measurement": "Inhibition (%) by 1 μM Z36-MP5", "setting": "HARS", "result": 4.68, "unit": "%"}, {"measurement": "Inhibition (%) by 1 μM Z36-MP5", "setting": "HNRNPU", "result": 6.85, "unit": "%"}, {"measurement": "Inhibition (%) by 1 μM Z36-MP5", "setting": "HSPA5; HSPA5, SEQ ID NO: 104, ATP BS", "result": "−16.08", "unit": "%"}, {"measurement": "Inhibition (%) by 1 μM Z36-MP5", "setting": "HSPA5; HSPA5, SEQ ID NO: 105, ATP BS", "result": "−7.84", "unit": "%"}, {"measurement": "Inhibition (%) by 1 μM Z36-MP5", "setting": "NDUFA10", "result": 14.09, "unit": "%"}, {"measurement": "Inhibition (%) by 1 μM Z36-MP5", "setting": "NSF; SEQ ID NO: 138, ATP BS", "result": 6.03, "unit": "%"}, {"measurement": "Inhibition (%) by 1 μM Z36-MP5", "setting": "NSF; SEQ ID NO: 139, ATP BS", "result": "−6.18", "unit": "%"}, {"measurement": "Inhibition (%) by 1 μM Z36-MP5", "setting": "PKM, PKM2", "result": 28.24, "unit": "%"}, {"measurement": "Inhibition (%) by 1 μM Z36-MP5", "setting": "POLR3A", "result": 4.31, "unit": "%"}, {"measurement": "Inhibition (%) by 1 μM Z36-MP5", "setting": "PRKAG1, PRKAG2", "result": "−7.97", "unit": "%"}, {"measurement": "Inhibition (%) by 1 μM Z36-MP5", "setting": "PRKAG2", "result": "−22.54", "unit": "%"}, {"measurement": "Inhibition (%) by 1 μM Z36-MP5", "setting": "PRPS1", "result": "−22.26", "unit": "%"}, {"measurement": "Inhibition (%) by 1 μM Z36-MP5", "setting": "PSMC4", "result": 13.36, "unit": "%"}, {"measurement": "Inhibition (%) by 1 μM Z36-MP5", "setting": "RFC1", "result": "−12.52", "unit": "%"}, {"measurement": "Inhibition (%) by 1 μM Z36-MP5", "setting": "RUVBL2", "result": "−0.97", "unit": "%"}, {"measurement": "Inhibition (%) by 1 μM Z36-MP5", "setting": "TOR4A", "result": 5.38, "unit": "%"}, {"measurement": "Inhibition (%) by 1 μM Z36-MP5", "setting": "TTL; SEQ ID NO: 213, ATP BS", "result": 10.59, "unit": "%"}, {"measurement": "Inhibition (%) by 1 μM Z36-MP5", "setting": "TTL; SEQ ID NO: 214, ATP BS", "result": "−14.46", "unit": "%"}]}]}
